This is an account of results in article PMC10057391, “Novel ^68Ga-Labeled Pyridine-Based Fibroblast Activation Protein-Targeted Tracers with High Tumor-to-Background Contrast” (Pharmaceuticals, 2023).

In series [1] the test system is FAP. Also on record: method as in PMID 24617858. Particulars: cited from earlier work.
Series [2] relates to HEK293T:hFAP tumor xenografts. Kind of series: Ex vivo biodistribution and blocking study in HEK293T:hFAP tumor-bearing mice. To be noted: 1 h post-injection; for average kidney uptake: range given for the two tracers together; for tumor uptake: HEK293T:hFAP tumor; for average tumor uptake with co-injection of FAPI-04 / reduction of average tumor uptake by co-injection of FAPI-04: blocking, FAPI-04 250 µg co-injected. On the procedure:
Biodistribution studies were conducted at 1 h post-injection with [^68Ga]Ga-AV02053 and [^68Ga]Ga-AV02070 in HEK293T:hFAP tumor-bearing mice, and the data are compared with those obtained previously using [^68Ga]Ga-FAPI-04 (Figure 4 and Figure 5 and Table S4). The results are consistent with the observations from their PET images. Except tumor and kidneys (1.35–1.85%ID/g), the average uptake values of [^68Ga]Ga-AV02053 and [^68Ga]Ga-AV02070 in all other collected organs/tissues were <0.6%ID/g. The tumor uptake values of [^68Ga]Ga-AV02053, [^68Ga]Ga-AV02070, and [^68Ga]Ga-FAPI-04 were 5.60 ± 1.12, 7.93 ± 1.88, and 12.5 ± 2.00%ID/g, respectively. […] This also led to higher tumor-to-blood, tumor-to-muscle and tumor-to-bone uptake ratios for [^68Ga]Ga-AV02053 (25.2 ± 1.97, 51.2 ± 19.8 and 38.1 ± 5.03, respectively) and [^68Ga]Ga-AV02070 (22.9 ± 10.1, 45.7 ± 9.88 and 34.3 ± 7.35, respectively) than [^68Ga]Ga-FAPI-04 (11.7 ± 2.04, 18.8 ± 4.09 and 3.93 ± 1.16, respectively) (p < 0.05).
(§1) Imaging and biodistribution studies were performed using male NOD.Cg-Rag1tm1Mom Il2rgtm1Wjl/SzJ (NRG) mice following previously published procedures. The experiments were conducted according to the guidelines established by the Canadian Council on Animal Care and approved by Animal Ethics Committee of the University of British Columbia. The mice were briefly sedated by inhalation of 2.5% isoflurane in oxygen, and HEK293T:hFAP cells (8.5 × 10^6 cells) were inoculated subcutaneously behind the left shoulder. When the tumor grew to 5–8 mm in ~3 weeks, the mice were used for PET/CT imaging and biodistribution studies.
For biodistribution studies, the mice were injected with the radiotracer (~2–4 MBq), as described above. For the blocking study, the mice were co-injected with 250 μg of FAPI-04. At 1 h post-injection, the mice were euthanized by CO2 inhalation. Blood was withdrawn by cardiac puncture, and organs/tissues of interest were collected, weighed, and counted using a Perkin Elmer (Waltham, MA, USA) Wizard2 2480 automatic gamma counter.

Series [3] concerns HEK293T:hFAP tumor xenografts. Kind of series: PET/CT imaging in mice bearing HEK293T:hFAP tumor xenografts. Type of series: in vivo. To be noted: PET imaging and biodistribution, 1 h post-injection. On the procedure: Both tracers were excreted primarily through the renal pathway and had very low background uptake in normal organs/tissues. Although [^68Ga]Ga-AV02053 and [^68Ga]Ga-AV02070 had lower tumor uptake than that of previously reported [^68Ga]Ga-FAPI-04, both of them had much lower background uptake, resulting in better tumor-to-background contrast than that of [^68Ga]Ga-FAPI-04 (Figure 3).
as §1
PET/CT imaging experiments were carried out using a Siemens (Knoxville, TN, USA) Inveon micro PET/CT scanner. Each tumor-bearing mouse was injected with ~4–6 MBq of ^68Ga-labeled tracer through a lateral caudal tail vein under 2.5% isoflurane in oxygen anesthesia, followed by recovery and then roamed freely in its cage during the uptake period. […]

A short description of series [4]: LogD7.4 measurement, shake flask method (n-octanol/PBS pH 7.4). It is filed as physicochemical. Particulars: n-octanol / phosphate-buffered saline pH 7.4, shake flask. An excerpt:
The lipophilicity of ^68Ga-labeled AV02053, AV02070, and FAPI-04 were estimated by measuring their LogD7.4 values using the shake flask method with n-octanol and phosphate-buffered saline (pH 7.4). The LogD7.4 values of [^68Ga]Ga-AV02053, [^68Ga]Ga-AV02070, and [^68Ga]Ga-FAPI-04 were −3.75 ± 0.16, −3.45 ± 0.10, and −1.02 ± 0.35, respectively. The values indicate that these ^68Ga-labeled tracers are hydrophilic, and the pyridine-based FAP-targeted tracers, [^68Ga]Ga-AV02053 and [^68Ga]Ga-AV02070, are more hydrophilic than [^68Ga]Ga-FAPI-04.
The lipophilicity characteristics of the ^68Ga-labeled pyridine-based FAPIs were determined by calculating the logarithm of the distribution coefficient (logD) in n-octanol/phosphate-buffered saline (PBS) of pH 7.4. Purified ^68Ga-labeled tracer (50 µL) was added into a test tube containing 1 mL n-octanol and 1 mL PBS. The mixture was vortexed, followed by centrifugation for 5 min at 3000 rpm. The two layers were then collected separately, and the radioactivity was counted using a Perkin Elmer (Waltham, MA, USA) Wizard2 2480 automatic gamma counter. After adjusting the counts to background and calculating the ratio (D) of the activity of the organic to that of the aqueous phase, the logD values were then calculated.

In series [5] the target is T1, recombinant human FAP (Homo sapiens, UniProt Q12884).
T1 construct: purchased Bio-legend, San Diego, CA, USA
T1 sequence (Q12884 1-760): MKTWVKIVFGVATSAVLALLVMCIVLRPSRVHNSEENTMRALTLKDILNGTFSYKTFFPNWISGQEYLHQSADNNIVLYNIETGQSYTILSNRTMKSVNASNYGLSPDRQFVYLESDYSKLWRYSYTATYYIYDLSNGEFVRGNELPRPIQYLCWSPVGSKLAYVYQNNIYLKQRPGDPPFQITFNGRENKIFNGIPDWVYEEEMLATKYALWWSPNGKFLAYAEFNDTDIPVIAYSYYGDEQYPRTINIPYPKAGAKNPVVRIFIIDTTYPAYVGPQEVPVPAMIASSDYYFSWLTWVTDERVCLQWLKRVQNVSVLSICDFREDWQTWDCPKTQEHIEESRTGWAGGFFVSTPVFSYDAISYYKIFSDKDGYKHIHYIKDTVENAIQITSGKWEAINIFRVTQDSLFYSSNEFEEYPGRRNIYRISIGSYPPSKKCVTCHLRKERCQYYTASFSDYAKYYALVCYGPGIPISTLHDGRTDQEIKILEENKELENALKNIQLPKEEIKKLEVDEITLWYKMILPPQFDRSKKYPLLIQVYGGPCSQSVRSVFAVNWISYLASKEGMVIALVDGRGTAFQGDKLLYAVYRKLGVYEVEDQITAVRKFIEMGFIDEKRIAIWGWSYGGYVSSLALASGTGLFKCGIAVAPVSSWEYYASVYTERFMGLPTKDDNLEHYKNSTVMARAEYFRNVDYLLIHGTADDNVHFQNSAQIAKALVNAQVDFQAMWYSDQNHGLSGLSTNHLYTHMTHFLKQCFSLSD
As to the kind of experiment: In vitro FAP fluorescence enzyme inhibition assay (Suc-Gly-Pro-AMC substrate). Type of series: biochemical. To be noted: nonradioactive Ga-complexed standards. On the procedure:
The binding affinities of Ga-AV02053 and Ga-AV02070 to human FAP were measured by an enzyme inhibition assay using Suc-Gly-Pro-AMC as the FAP substrate. The human FAP enzymatic activity on the substrate was inhibited by Ga-AV02053 and Ga-AV02070 in a dose dependent-manner (Figure 2).
The half maximal inhibitory concentration (IC50) values of the tested compounds for FAP were measured by in vitro enzymatic assay. The recombinant human FAP (Bio-legend, San Diego, CA, USA; 0.2 µg/mL, 50 µL) was added into costar 96-well plate. PBS and varied concentrations (0.2 pM to 2 µM) of tested nonradioactive Ga-complexed standards were added to each well (in duplicate) containing the recombinant human FAP. After being incubated for 30 min at 37 °C, 50 µL of Suc-Gly-Pro-AMC (2 µM, Bachem, Torrance, CA, USA) was added to each well. The fluorescent signals were acquired at 15, 30, 45, and 60 min using FlexStation 3 Multi-Mode Microplate Reader with excitation at 380 nm and emission at 460 nm. The IC50 (FAP) values were calculated using “nonlinear fit model” built-in model in GraphPad Prism 7.02 software.

The subject of series [6] is HEK293T:hFAP tumor xenografts. Further details: method as in PMID 36770755. To be noted: 1 h post-injection, cited from earlier work.

Read-outs that look alike come from different tables or passages of the source.

As for `N#C[C@@H]1CCCN1C(=O)CNC(=O)c1ccnc2ccccc12` [(4-quinolinoyl)glycyl-(2S)-cyanopyrrolidine], the half-inhibitory concentration (IC50) in series [1] is […].
`N#C[C@@H]1CCCN1C(=O)CNC(=O)c1ccncc1` [(pyridine-4-carbonyl)glycyl-(2S)-cyanopyrrolidine]: in series [1], the IC50 was 63 nM.
Turning to `CN(CCN(C)c1cc(C(=O)NCC(=O)N2CC(F)(F)C[C@H]2C#N)ccn1)C(=O)CN1CCN(CC(=O)[O-])CCN(CC(=O)[O-])CCN(CC(=O)[O-])CC1.[68Ga+3]` [[^68Ga]Ga-AV02070], in series [2], the “average uptake in all other collected organs/tissues (except tumor and kidneys)” value is less than 0.6 %ID/g; the “average uptake in other major organs with vs without co-injection of FAPI-04” value was “no significant difference”; the blood uptake is 0.36 ± 0.05 %ID/g; the bone uptake was determined as 0.23 ± 0.06 %ID/g. For the same molecule, in series [2], the muscle uptake turned out to be 0.19 ± 0.10 %ID/g, the tumor-to-blood uptake ratio amounted to 22.9 ± 10.1, the tumor-to-bone uptake ratio is listed as 34.3 ± 7.35 and the tumor-to-muscle uptake ratio is 45.7 ± 9.88. Moreover, in series [2], the average kidney uptake is 1.35–1.85 %ID/g, the tumor uptake came out at 7.93 ± 1.88 %ID/g, the “average tumor uptake with co-injection of FAPI-04” value was determined as 0.21 %ID/g and the “reduction of average tumor uptake by co-injection of FAPI-04” value came to 97%. In addition, in series [3], the excretion pathway entry is recorded as “excreted mainly through the renal pathway”. The molecule also had a LogD7.4 in series [4] of −3.45 ± 0.10.
As for `CN(CCN(C)c1ccc(C(=O)NCC(=O)N2CC(F)(F)C[C@H]2C#N)cn1)C(=O)CN1CCN(CC(=O)[O-])CCN(CC(=O)[O-])CCN(CC(=O)[O-])CC1.[68Ga+3]` [[^68Ga]Ga-AV02053], in series [2], the “average uptake in all other collected organs/tissues (except tumor and kidneys)” value is less than 0.6 %ID/g; the “average uptake in other major organs with vs without co-injection of FAPI-04” value was “no significant difference”; the blood uptake was determined as 0.22 ± 0.04 %ID/g; the bone uptake was found to be 0.14 ± 0.02 %ID/g. Besides, in series [2], the muscle uptake amounted to 0.12 ± 0.05 %ID/g, the tumor-to-blood uptake ratio turned out to be 25.2 ± 1.97, the tumor-to-bone uptake ratio turned out to be 38.1 ± 5.03 and the tumor-to-muscle uptake ratio worked out at 51.2 ± 19.8. Besides, in series [2], the average kidney uptake is given as 1.35–1.85 %ID/g, the tumor uptake was 5.6 ± 1.12 %ID/g, the “average tumor uptake with co-injection of FAPI-04” value worked out at 0.30 %ID/g and the “reduction of average tumor uptake by co-injection of FAPI-04” value is 95%. Moreover, in series [3], the excretion pathway entry is on record as “excreted mainly through the renal pathway”. For the same molecule, in series [4], the LogD7.4 was −3.75 ± 0.16.
For `CN(CCN(C)c1cc(C(=O)NCC(=O)N2CC(F)(F)C[C@H]2C#N)ccn1)C(=O)CN1CCN(CC(=O)[O-])CCN(CC(=O)[O-])CCN(CC(=O)[O-])CC1.[Ga+3]` [Ga-AV02070], the IC50 in series [5] was determined as 17.1 ± 4.6 nM.
In the case of `CN(CCN(C)c1ccc(C(=O)NCC(=O)N2CC(F)(F)C[C@H]2C#N)cn1)C(=O)CN1CCN(CC(=O)[O-])CCN(CC(=O)[O-])CCN(CC(=O)[O-])CC1.[Ga+3]` [Ga-AV02053], the IC50 in series [5] stood at 187 ± 52 nM.
Regarding `N#C[C@@H]1CC(F)(F)CN1C(=O)CNC(=O)c1ccnc2ccc(OCCCN3CCN(C(=O)CN4CCN(CC(=O)[O-])CCN(CC(=O)[O-])CCN(CC(=O)[O-])CC4)CC3)cc12.[68Ga+3]` [[^68Ga]Ga-FAPI-04], in series [6] (obtained previously), the blood uptake was 1.07 ± 0.08 %ID/g, the bone uptake was 3.36 ± 1.09 %ID/g, the muscle uptake is 0.67 ± 0.05 %ID/g and the tumor-to-blood uptake ratio is on record as 11.7 ± 2.04. Besides, in series [6] (obtained previously), the tumor-to-bone uptake ratio is on record as 3.93 ± 1.16 and the tumor-to-muscle uptake ratio is given as 18.8 ± 4.09. For the same molecule, in series [6] (HEK293T:hFAP tumor, previously reported), the tumor uptake is given as 12.5 ± 2.00 %ID/g. Moreover, the LogD7.4 in series [4] was −1.02 ± 0.35.
